In PubChem BioAssay AID1963960 (Molecular Pharmacology Branch, DTP, NCI, 2024):

System: MDA-MB-468 spheroids with HUVEC/MSC, viability
Assay: Anticancer human tumor MDA-MB-468 cell line growth inhibition [PI3K];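 note: spheroids exposed to agents for seven days before readout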;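 for viability, T/C: 100% = DMSO vehicle control viability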
Settings: for IC50: curve of first compound; for viability, T/C: stronger effect = lower value
In short: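 Targeted small molecules plus PI3K inhibitors, half-log dose series from Cmax (default top 10 microM), were applied to heterotypic spheroids of cancer cells with HUVEC and MSCs. Viability indicated growth inhibition.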

[1] = second compound 0.0316 µM, first compound 0.000316 µM
[2] = second compound 0.0316 µM, first compound 0.001 µM
[3] = second compound 0.0316 µM, first compound 0.00316 µM
[4] = second compound 0.0316 µM, first compound 0.01 µM
[5] = second compound 0.0316 µM, first compound 0.0316 µM
[6] = second compound 0.0316 µM, first compound 0.1 µM
[7] = second compound 0.1 µM, first compound 0.000316 µM
[8] = second compound 0.1 µM, first compound 0.001 µM
[9] = second compound 0.1 µM, first compound 0.00316 µM
[10] = second compound 0.1 µM, first compound 0.01 µM
[11] = second compound 0.1 µM, first compound 0.0316 µM
[12] = second compound 0.1 µM, first compound 0.1 µM
[13] = second compound 0.316 µM, first compound 0.000316 µM
[14] = second compound 0.316 µM, first compound 0.001 µM
[15] = second compound 0.316 µM, first compound 0.00316 µM
[16] = second compound 0.316 µM, first compound 0.01 µM
[17] = second compound 0.316 µM, first compound 0.0316 µM
[18] = second compound 0.316 µM, first compound 0.1 µM
[19] = second compound 1 µM, first compound 0.000316 µM
[20] = second compound 1 µM, first compound 0.001 µM
[21] = second compound 1 µM, first compound 0.00316 µM
[22] = second compound 1 µM, first compound 0.01 µM
[23] = second compound 1 µM, first compound 0.0316 µM
[24] = second compound 1 µM, first compound 0.1 µM
[25] = second compound 3.16 µM, first compound 0.000316 µM
[26] = second compound 3.16 µM, first compound 0.001 µM
[27] = second compound 3.16 µM, first compound 0.00316 µM
[28] = second compound 3.16 µM, first compound 0.01 µM
[29] = second compound 3.16 µM, first compound 0.0316 µM
[30] = second compound 3.16 µM, first compound 0.1 µM
[31] = second compound 10 µM, first compound 0.000316 µM
[32] = second compound 10 µM, first compound 0.001 µM
[33] = second compound 10 µM, first compound 0.00316 µM
[34] = second compound 10 µM, first compound 0.01 µM
[35] = second compound 10 µM, first compound 0.0316 µM
[36] = second compound 10 µM, first compound 0.1 µM

CC(=O)c1c(C)c2cnc(Nc3ccc(N4CCNCC4)cn3)nc2n(C2CCCC2)c1=O + Cc1nc(NC(=O)N2CCCC2C(N)=O)sc1-c1ccnc(C(C)(C)C(F)(F)F)c1
IC50 (second compound 0.0316 µM): > 100 nM
IC50 (second compound 0.1 µM): > 100 nM
IC50 (second compound 0.316 µM): > 100 nM
IC50 (second compound 1 µM): > 100 nM
IC50 (second compound 3.16 µM): > 100 nM
IC50 (second compound 10 µM): < 0.316 nM
viability, T/C [1]: 91.5%
viability, T/C [2]: 92.1%
viability, T/C [3]: 74.8%
viability, T/C [4]: 93.4%
viability, T/C [5]: 70.7%
viability, T/C [6]: 70.2%
viability, T/C [7]: 88.3%
viability, T/C [8]: 92.2%
viability, T/C [9]: 86.5%
viability, T/C [10]: 97%
viability, T/C [11]: 61.6%
viability, T/C [12]: 67.2%
viability, T/C [13]: 96.2%
viability, T/C [14]: 95%
viability, T/C [15]: 74.8%
viability, T/C [16]: 91.9%
viability, T/C [17]: 72.5%
viability, T/C [18]: 67.6%
viability, T/C [19]: 90.1%
viability, T/C [20]: 75.7%
viability, T/C [21]: 73.5%
viability, T/C [22]: 75.2%
viability, T/C [23]: 75.6%
viability, T/C [24]: 76.8%
viability, T/C [25]: 74.9%
viability, T/C [26]: 60.4%
viability, T/C [27]: 57.5%
viability, T/C [28]: 68.8%
viability, T/C [29]: 55.4%
viability, T/C [30]: 55.2%
viability, T/C [31]: 32.1%
viability, T/C [32]: 24.2%
viability, T/C [33]: 31.2%
viability, T/C [34]: 28.6%
viability, T/C [35]: 29.5%
viability, T/C [36]: 27.6%

CC(C)n1nc(-c2ccc3oc(N)nc3c2)c2c(N)ncnc21 + Cc1nc(NC(=O)N2CCCC2C(N)=O)sc1-c1ccnc(C(C)(C)C(F)(F)F)c1
IC50 (second compound 0.0316 µM): 50.6 nM
IC50 (second compound 0.1 µM): 33 nM
IC50 (second compound 0.316 µM): 24.5 nM
IC50 (second compound 1 µM): 19 nM
IC50 (second compound 3.16 µM): 14.7 nM
IC50 (second compound 10 µM): < 0.316 nM
viability, T/C [1]: 88.3%
viability, T/C [2]: 82.8%
viability, T/C [3]: 89.5%
viability, T/C [4]: 101%
viability, T/C [5]: 74.6%
viability, T/C [6]: 14.4%
viability, T/C [7]: 93.7%
viability, T/C [8]: 79.6%
viability, T/C [9]: 85.5%
viability, T/C [10]: 95%
viability, T/C [11]: 51.6%
viability, T/C [12]: 10.8%
viability, T/C [13]: 99.5%
viability, T/C [14]: 94.3%
viability, T/C [15]: 86.2%
viability, T/C [16]: 82.5%
viability, T/C [17]: 40.6%
viability, T/C [18]: 10.7%
viability, T/C [19]: 86.4%
viability, T/C [20]: 75.6%
viability, T/C [21]: 63.6%
viability, T/C [22]: 66.2%
viability, T/C [23]: 42.2%
viability, T/C [24]: 11.8%
viability, T/C [25]: 64.5%
viability, T/C [26]: 58.4%
viability, T/C [27]: 61.1%
viability, T/C [28]: 59.2%
viability, T/C [29]: 31.8%
viability, T/C [30]: 9.62%
viability, T/C [31]: 42.4%
viability, T/C [32]: 21.8%
viability, T/C [33]: 32.1%
viability, T/C [34]: 20.7%
viability, T/C [35]: 18.5%
viability, T/C [36]: 5.69%
